The results in this text go back to patent US10689370B2, “Cyclopropane carboxamide modulators of cystic fibrosis transmembrane conductance regulator” (Auspex Pharmaceuticals, Inc., priority 2014, dated 2020).

A short description of the data set: In vitro human liver microsomal stability assay. The class given is in vitro ADME. To be noted: human liver microsomes 2 mg per mL protein, NADPH-generating system, 1 uM test compound, 37 °C, 0-240 min; for half-life % change over d0: degradation half-life relative to non-deuterated d0 (Example 1); for Clearance % change over d0: relative to non-deuterated d0 (Example 1). The method, then: In Vitro Liver Microsomal Stability Assay
Human liver microsomal stability assays were conducted at 2 mg per mL liver microsome protein with an NADPH-generating system consisting of NADP (1 mM, pH 7.4), glucose 6-phosphate (5 mM, pH 7.4) and glucose 6-phosphate dehydrogenase (I unit/mL). Test compounds were prepared as solutions in DMSO and added to the assay mixture (1 uM, final concentration in incubation) and incubated at 37±1° C. Reactions were initiated with addition of the test compounds and stopped at 0, 60, 120 or 240 min after test article addition with stop reagent, acetonitrile. Samples were centrifuged (920×g for 10 min at 10° C.) in 96-well plates. Supernatant fractions were analyzed by LC-MS/MS to determine the percent remaining and estimate the degradation half-life of the test compounds.

Molecules are shown by their SMILES.

On to `CC(C)(CO)c1cc2cc(NC(=O)C3(c4ccc5c(c4)OC(F)(F)O5)CC3)c(F)cc2n1C[C@@H](O)CO` [Example 1, (R)-1-(2,2-difluorobenzo[d][1,3]dioxol-5-yl)-N-(1-(2,3-dihydroxypropyl)-6-fluoro-2-(1-hydroxy-2-methylpropan-2-yl)-1H-indol-5-yl)cyclopropanecarboxamide, reference compound], for which the “half-life % change over d0” value is recorded as 0.0% and the “Clearance % change over d0” value was 0.0%.

As to `[2H]C([2H])(O)C(C)(C)c1cc2cc(NC(=O)C3(c4ccc5c(c4)OC(F)(F)O5)CC3)c(F)cc2n1C[C@@H](O)CO` [Example 2], the “half-life % change over d0” value worked out at 200.0% and the “Clearance % change over d0” value is reported as −66.7%.

Turning to `[2H]C([2H])([2H])C(CO)(c1cc2cc(NC(=O)C3(c4ccc5c(c4)OC(F)(F)O5)CC3)c(F)cc2n1C[C@@H](O)CO)C([2H])([2H])[2H]` [Example 3, 1-(2,2-difluoro-2H-1,3-benzodioxol-5-yl)-N-[1-[(2R)-2,3-dihydroxypropyl]-6-fluoro-2-[1-hydroxy-2-methyl(^2H6)propan-2-yl]-1H-indol-5-yl]cyclopropane-1-carboxamide], the “half-life % change over d0” value worked out at 13.3% and the “Clearance % change over d0” value is on record as −11.9%.

In the case of `[2H]C([2H])(O)[C@]([2H])(O)Cn1c(C(C)(C)CO)cc2cc(NC(=O)C3(c4ccc5c(c4)OC(F)(F)O5)CC3)c(F)cc21` [Example 4, (R)1-(2,2-difluoro-2H-1,3-benzodioxol-5-yl)-N-[1-[2,3-dihydroxy(2,3,3-^2H3)propyl]-6-fluoro-2-(1-hydroxy-2-methylpropan-2-yl)-1H-indol-5-yl]cyclopropane-1-carboxamide], the “half-life % change over d0” value is given as 4.8% and the “Clearance % change over d0” value is listed as −4.8%.

Turning to `[2H]C([2H])(O)C(C)(C)c1cc2cc(NC(=O)C3(c4ccc5c(c4)OC(F)(F)O5)CC3)c(F)cc2n1C[C@@]([2H])(O)C([2H])([2H])O` [Example 5, (R)1-(2,2-difluoro-2H-1,3-benzodioxol-5-yl)-N-[1-[2,3-dihydroxy(2,3,3-^2H3)propyl]-6-fluoro-2-(1-hydroxy-2-methyl(1,1-^2H2)propan-2-yl)-1H-indol-5-yl]cyclopropane-1-carboxamide], the “half-life % change over d0” value stood at 250.3% and the “Clearance % change over d0” value is on record as −71.4%.

For `[2H]C([2H])(O)C(C)(C)c1cc2cc(NC(=O)C3(c4ccc5c(c4)OC(F)(F)O5)C([2H])([2H])C3([2H])[2H])c(F)cc2n1C[C@@H](O)CO` [Example 6], the “half-life % change over d0” value is given as 281.8% and the “Clearance % change over d0” value is reported as −73.8%.

On to `[2H]C([2H])([2H])C(CO)(c1cc2cc(NC(=O)C3(c4ccc5c(c4)OC(F)(F)O5)C([2H])([2H])C3([2H])[2H])c(F)cc2n1C[C@@H](O)CO)C([2H])([2H])[2H]` [Example 7, (R)-1-(2,2-difluorobenzo[d][1,3]dioxol-5-yl)-N-(1-(2,3-dihydroxypropyl)-6-fluoro-2-(1-hydroxy-2-methyl(^2H6)propan-2-yl)-1H-indol-5-yl)(^2H4)cyclopropanecarboxamide], for which the “half-life % change over d0” value is reported as −4.2% and the “Clearance % change over d0” value amounted to 4.8%.

For the compound `[2H]C([2H])(O)[C@H](O)Cn1c(C(C)(C)CO)cc2cc(NC(=O)C3(c4ccc5c(c4)OC(F)(F)O5)CC3)c(F)cc21` [Example 8, (R)1-(2,2-difluoro-2H-1,3-benzodioxol-5-yl)-N-[1-[2,3-dihydroxy(3,3-^2H2)propyl]-6-fluoro-2-(1-hydroxy-2-methylpropan-2-yl)-1H-indol-5-yl]cyclopropane-1-carboxamide], the “half-life % change over d0” value is recorded as 4.8% and the “Clearance % change over d0” value was −4.8%.
